The results in this text go back to US20220411419A1, “SMALL MOLECULE MODULATORS OF MHC-I” (RetroVirox, Inc., priority 2018, published 2022).

In data set [1] the test system is downmodulation of MHC-I molecules expressed on the surface of HIV infected SupT1 cells. Kind of data set: cells. Particulars: for EC50: Human immunodeficiency virus 1, SUP-T1, read-out: EC50 for inhibition of MHC-I downmodulation utilizing the R1 parameter; for activity at 100 µM: Human immunodeficiency virus 1, SUP-T1, read-out: R1 @ 100 μM (R1 value for MHC-I downmodulation as % of the vehicle control).

The nature of another data set: in vitro. As to conditions: human, uninfected SupT1 cells.

The structures appear in SMILES notation.

As for `C=Cc1ccc(NC(=O)COc2cccc3c2OC(C)(C)C3)nc1` [Compound 67, 2-((2,2-dimethyl-2,3-dihydrobenzofuran-7-yl)oxy)-N-(5-vinylpyridin-2-yl)acetamide], the EC50 (in general, the concentration needed to bring the measured effect to its halfway point) in data set [1] worked out at 2.2 µM. The CC50 – broadly, the concentration that lowers cell viability or growth by half – at 48 h in “in vitro” is greater than 125 µM.

As for `CN(C(=O)COc1cccc2c1OC(C)(C)C2)c1ccc(Cl)nn1` [Compound 81, N-(6-Chloropyridazin-3-yl)-2-((2,2-dimethyl-2,3-dihydrobenzofuran-7-yl)oxy)-N-methylacetamide], in data set [1], the EC50 is greater than 25 µM and the activity at 100 µM was 67%. In “in vitro”, this molecule had a CC50 greater than 125 µM and a CC50 at 48 h greater than 125 µM.

With `CC1(C)Cc2cccc(OCC(=O)Nc3nc4cc(F)ccc4s3)c2O1` [Compound 148, 2-((2,2-Dimethyl-2,3-dihydrobenzofuran-7-yl)oxy)-N-(5-fluorobenzo[d]thiazol-2-yl)acetamide], the EC50 in data set [1] was determined as 2 µM. Also, in the data set “in vitro”, the CC50 at 48 h is greater than 100 µM.

For `Cc1csc(N(C(=O)COc2cccc3c2OC(C)(C)C3)c2ccncc2)n1` [Compound 95, 2-((2,2-Dimethyl-2,3-dihydrobenzofuran-7-yl)oxy)-N-(4-methylthiazol-2-yl)-N-(pyridin-4-yl)acetamide], the EC50 in data set [1] was determined as 0.95 µM. This molecule also yielded a CC50 at 48 h in “in vitro” greater than 125 µM.

On to `CC1(C)Cc2cccc(OCC(=O)N(c3ccccc3)c3nc4ccccc4s3)c2O1` [Compound 98, N-(Benzo[d]thiazol-2-yl)-2-((2,2-dimethyl-2,3-dihydrobenzofuran-7-yl)oxy)-N-phenylacetamide], for which the EC50 in data set [1] worked out at 29 µM. In the data set “in vitro”, this molecule displayed a CC50 at 48 h greater than 90 µM.

As for `COc1ccccc1OCC(=O)Nc1nc2c(F)cccc2s1` [Compound 192, N-(4-Fluorobenzo[d]thiazol-2-yl)-2-(2-methoxyphenoxy)acetamide], in data set [1], the EC50 turned out to be 1.8 µM. This molecule also showed a CC50 at 48 h in “in vitro” greater than 10 µM.

As for `Cc1ccccc1OCC(=O)N(C)c1nc2c(s1)CCCC2` [Compound 125, N-Methyl-N-(4,5,6,7-tetrahydrobenzo[d]thiazol-2-yl)-2-(o-tolyloxy) acetamide], in data set [1], the EC50 was determined as 0.88 µM. In the data set “in vitro”, this molecule returned a 50% cytotoxic concentration (CC50) at 48 h greater than 125 µM.

Regarding `CC1(C)Cc2cccc(OCC(=O)Nc3cc4ccccc4cn3)c2O1` [Compound 17, 2-((2,2-Dimethyl-2,3-dihydrobenzofuran-7-yl)oxy)-N-(isoquinolin-3-yl) acetamide], the EC50 in data set [1] amounted to 22 µM. This molecule also had a CC50 at 48 h in “in vitro” greater than 125 µM.

As for `CC1(C)Cc2cccc(OCC(=O)Nc3ccc(C#N)cn3)c2O1` [Compound 22, N-(5-Cyanopyridin-2-yl)-2-((2,2-dimethyl-2,3-dihydrobenzofuran-7-yl)oxy) acetamide], in data set [1], the concentration giving a half-maximal response (EC50) was determined as 25 µM. Moreover, in the data set “in vitro”, the CC50 at 48 h was greater than 100 µM.

For the molecule `CN(C(=O)CCc1cccc2c1OC(C)(C)C2)c1nc2c(s1)CCCC2` [Compound 106, 3-(2,2-Dimethyl-2,3-dihydrobenzofuran-7-yl)-N-methyl-N-(4,5,6,7-tetrahydrobenzo[d]thiazol-2-yl)propanamide], the EC50 in data set [1] amounted to 0.42 µM. Further, the CC50 at 48 h in the data set “in vitro” was greater than 125 µM.

As for `Cc1cccnc1CN(C(=O)COc1cccc2c1OC(C)(C)C2)c1nc2c(s1)CCCC2` [Compound 42, 2-((2,2-Dimethyl-2,3-dihydrobenzofuran-7-yl)oxy)-N-((3-methylpyridin-2-yl)methyl)-N-(4,5,6,7-tetrahydrobenzo[d]thiazol-2-yl)acetamide], the EC50 in data set [1] came to 7.3 µM. Besides, in “in vitro”, the half-maximal cytotoxic concentration (CC50) at 48 h was greater than 125 µM.

In the case of `COc1cccc(OCC(=O)N(C)c2nc3c(s2)CCCC3)c1` [Compound 121, 2-(3-Methoxyphenoxy)-N-methyl-N-(4,5,6,7-tetrahydrobenzo[d]thiazol-2-yl) acetamide], the EC50 in data set [1] stood at 3.9 µM. This molecule also registered a CC50 at 48 h in “in vitro” greater than 125 µM.

On to `COc1ccccc1OCC(=O)Nc1nc2cc(F)ccc2s1` [Compound 196, N-(5-Fluorobenzo[d]thiazol-2-yl)-2-(2-methoxyphenoxy)acetamide], for which, in data set [1], the EC50 is greater than 25 µM and the activity at 100 µM is 31%. Besides, in the data set “in vitro”, the CC50 is greater than 100 µM and the CC50 at 48 h is greater than 100 µM.

On to `C=Cc1ccc(N(C)C(=O)COc2cccc3c2OC(C)(C)C3)nc1` [Compound 79, 2-((2,2-Dimethyl-2,3-dihydrobenzofuran-7-yl)oxy)-N-methyl-N-(5-vinylpyridin-2-yl)acetamide], for which the EC50 in data set [1] was found to be 5 µM. The molecule also had a CC50 at 48 h in “in vitro” greater than 125 µM.

Regarding `Cc1ccc(N(Cc2ccccn2)C(=O)COc2cccc3c2OC(C)(C)C3)nc1` [Compound 48, 2-((2,2-Dimethyl-2,3-dihydrobenzofuran-7-yl)oxy)-N-(5-methylpyridin-2-yl)-N-(pyridin-2-ylmethyl)acetamide], the EC50 in data set [1] stood at 21 µM. In “in vitro”, this molecule showed a CC50 at 48 h greater than 100 µM.

For `COc1ccccc1CCC(=O)Nc1nc2c(s1)CCCC2` [Compound 194, 3-(2-Methoxyphenyl)-N-(4,5,6,7-tetrahydrobenzo[d]thiazol-2-yl) propanamide], in data set [1], the EC50 was determined as 1.7 µM. Further, in “in vitro”, the CC50 at 48 h was determined as 125 µM.

With `Cc1csc(N(Cc2ccccn2)C(=O)COc2cccc3c2OC(C)(C)C3)n1` [Compound 33, 2-((2,2-Dimethyl-2,3-dihydrobenzofuran-7-yl)oxy)-N-(4-methylthiazol-2-yl)-N-(pyridin-2-ylmethyl)acetamide], in data set [1], the half-maximal effective concentration (EC50) stood at 0.18 µM. In addition, the CC50 at 48 h in the data set “in vitro” was greater than 100 µM.

As for `CC1(C)Cc2cccc(OCC(=O)Nc3nc4c(-c5ccc[nH]5)cccc4s3)c2O1` [Compound 102, N-(4-(1H-Pyrrol-2-yl)benzo[d]thiazol-2-yl)-2-((2,2-dimethyl-2,3-dihydrobenzofuran-7-yl)oxy)acetamide], in data set [1], the EC50 is greater than 25 µM and the activity at 100 µM came to 20%. In “in vitro”, the CC50 is greater than 100 µM and the CC50 at 48 h is greater than 100 µM.

For the molecule `C=Cc1ccc(NC(=O)COc2cccc3c2OC(C)(C)C3)nn1` [Compound 84, 2-((2,2-Dimethyl-2,3-dihydrobenzofuran-7-yl)oxy)-N-(6-vinylpyridazin-3-yl)acetamide], the EC50 in data set [1] came out at 0.89 µM. Besides, the CC50 at 48 h in the data set “in vitro” was greater than 100 µM.

In the case of `COc1ccccc1OCC(=O)Nc1nc2cc(C)c(C)cc2s1` [Compound 191, N-(5,6-Dimethylbenzo[d]thiazol-2-yl)-2-(2-methoxyphenoxy)acetamide], in data set [1], the EC50 was greater than 25 µM and the activity at 100 µM turned out to be 62%. In the data set “in vitro”, the CC50 is greater than 100 µM and the CC50 at 48 h is greater than 100 µM.

In the case of `COc1ccc(NC(=O)COc2cccc3c2OC(C)(C)C3)nn1` [Compound 26, 2-((2,2-Dimethyl-2,3-dihydrobenzofuran-7-yl)oxy)-N-(6-methoxypyridazin-3-yl)acetamide], in data set [1], the EC50 was greater than 25 µM and the activity at 100 µM was determined as 53%. In addition, in the data set “in vitro”, the CC50 is greater than 100 µM and the CC50 at 48 h was greater than 100 µM.

For `CC1(C)Cc2cccc(OCC(=O)Nc3ccc(Br)cn3)c2O1` [Compound 66, N-(5-Bromopyridin-2-yl)-2-((2,2-dimethyl-2,3-dihydrobenzofuran-7-yl)oxy) acetamide], the EC50 in data set [1] is 3.4 µM. This molecule also came in with a CC50 at 48 h in “in vitro” greater than 125 µM.

Take `Cc1csc(N(Cc2ccncc2)C(=O)COc2cccc3c2OC(C)(C)C3)n1` [Compound 35, 2-((2,2-Dimethyl-2,3-dihydrobenzofuran-7-yl)oxy)-N-(4-methylthiazol-2-yl)-N-(pyridin-4-ylmethyl)acetamide]: the EC50 in data set [1] was 1.42 µM. Besides, the CC50 at 48 h in “in vitro” is greater than 100 µM.

In the case of `Cc1csc(N(Cc2ccccc2)C(=O)COc2ccccc2OCc2ccccc2)n1` [Compound 142, N-Benzyl-2-(2-(benzyloxy)phenoxy)-N-(4-methylthiazol-2-yl)acetamide], the EC50 in data set [1] is 5.5 µM. This molecule displayed a CC50 at 48 h in “in vitro” greater than 125 µM.

As to `Cc1cnc(NC(=O)COc2cccc3c2OC(C)(C)C3)cn1` [Compound 9, 2-((2,2-Dimethyl-2,3-dihydrobenzofuran-7-yl)oxy)-N-(5-methylpyrazin-2-yl)acetamide], the EC50 in data set [1] turned out to be 0.5 µM. This molecule returned a CC50 at 48 h in “in vitro” greater than 125 µM.

`CC1(C)Cc2cccc(OCC(=O)Nc3cccc4cnccc34)c2O1` [Compound 14, 2-((2,2-Dimethyl-2,3-dihydrobenzofuran-7-yl)oxy)-N-(isoquinolin-5-yl) acetamide]: in data set [1], the EC50 was greater than 25 µM and the activity at 100 µM is 18%. In “in vitro”, the CC50 is greater than 100 µM and the 50% cytotoxic concentration (CC50) at 48 h is greater than 100 µM.

`CC1(C)Cc2cccc(OCC(=O)Nc3ccc4c(n3)CCC4)c2O1` [Compound 163, N-(6,7-dihydro-5H-cyclopenta[b]pyridin-2-yl)-2-((2,2-dimethyl-2,3-dihydrobenzofuran-7-yl)oxy)acetamide]: the EC50 in data set [1] turned out to be 0.37 µM. The molecule also returned a CC50 at 48 h in “in vitro” greater than 125 µM.

As for `CCc1ccc(NC(=O)COc2cccc3c2OC(C)(C)C3)nc1C` [Compound 75, 2-((2,2-Dimethyl-2,3-dihydrobenzofuran-7-yl)oxy)-N-(5-ethyl-6-methylpyridin-2-yl)acetamide], the EC50 in data set [1] was determined as 0.21 µM. In addition, half-maximal cytotoxicity in the data set “in vitro” (CC50 at 48 h) was put at 120 µM.

Regarding `Cc1cccc(OCC(=O)N(C)c2nc3c(s2)CCCC3)c1C` [Compound 114, 2-(2,3-Dimethylphenoxy)-N-methyl-N-(4,5,6,7-tetrahydrobenzo[d]thiazol-2-yl)acetamide], in data set [1], the EC50 is 1.2 µM. This molecule returned a CC50 at 48 h in the data set “in vitro” greater than 125 µM.

Consider `CC1(C)Cc2cccc(OC(C)(C)C(=O)Nc3nc4ccccc4s3)c2O1` [Compound 20, N-(Benzo[d]thiazol-2-yl)-2-((2,2-dimethyl-2,3-dihydrobenzofuran-7-yl)oxy)-2-methylpropanamide], for which, in data set [1], the EC50 was greater than 30 µM and the activity at 100 µM came to 56%. Moreover, in “in vitro”, the CC50 was greater than 90 µM and the CC50 at 48 h is greater than 90 µM.

`Cc1ccc(NC(=O)COc2cccc3c2OC(C)(C)C3)nc1C` [Compound 73, 2-((2,2-Dimethyl-2,3-dihydrobenzofuran-7-yl)oxy)-N-(5,6-dimethylpyridin-2-yl)acetamide]: the EC50 in data set [1] came out at 0.21 µM. In “in vitro”, this molecule showed a CC50 at 48 h greater than 100 µM.
